According to patent publication US4994376A, “Detection of bacteroides gingivalis” (priority 1987, dated 1991):
Read-outs that look alike come from different tables or passages of the source. Peptide text beside a SMILES is read from it.

Experiments:
Type in all cases: biochemical
Capnocytophaga sp. = conditions: strain JD3-5; β-naphthylamine liberated after 60 minutes, 37° C.
Outline: (§1)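 Hydrolysis of N-CBz-glycyl-glycyl-L-arginine-β-naphthylamide over 1 h at 37 °C, then colour developed with Fast Garnet GBC (0.5 mg/ml) in 1M acetate pH 4.2 with 10% Tween 20 for 15 min at room temperature. Absorbance read at 525 nm against an enzyme-free control; activity given as nmol β-naphthylamine released in 60 min.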

C. ochracea = conditions: strain ATCC 27872; β-naphthylamine liberated after 60 minutes, 37° C.
Outline: as §1

B. levii = conditions: β-naphthylamine liberated after 60 minutes, 37° C.
Outline: as §1

Bacteroides gingivalis = conditions: β-naphthylamine liberated after 60 minutes, 37° C.
Outline: as §1

A. equuli = test: Aminopeptidase activity on β-naphthylamide substrates; conditions: strain ATCC 19392; β-naphthylamine liberated after 60 minutes, 37° C.
Outline: (§2)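 Enzyme plus N-CBz-glycyl-glycyl-L-arginine-β-naphthylamide incubated 1 h at 37° C. Fast Garnet GBC (0.5 mg/ml) in 1M acetate pH 4.2 with 10% Tween 20 added; stood 15 min at RT. A525 read; activity given as nmol β-naphthylamine liberated in 60 min.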

F. periodonticum = test: as above; conditions: strain EK1-15; β-naphthylamine liberated after 60 minutes, 37° C.
Outline: as §2

L. fermentum = test: as above; conditions: strain ATCC 11581; β-naphthylamine liberated after 60 minutes, 37° C.
Outline: as §2

Lactobacillus casei = test: as above; conditions: β-naphthylamine liberated after 60 minutes, 37° C.
Outline: as §2

S. salivarius = test: as above; conditions: β-naphthylamine liberated after 60 minutes, 37° C.
Outline: as §2

Haemophilus aphrophilus = test: as above; conditions: β-naphthylamine liberated after 60 minutes, 37° C.
Outline: as §2

A. suis = test: as above; conditions: strain ATCC 15557; β-naphthylamine liberated after 60 minutes, 37° C.
Outline: as §2

Eikenella corrodens = conditions: strain BP1-6; β-naphthylamine liberated after 60 minutes, 37° C.
Outline: as §2

S. mutans = conditions: strain ATCC 25175; β-naphthylamine liberated after 60 minutes, 37° C.
Outline: as §2

[1] = test system: Actinobacillus actinomycetemcomitans; conditions: β-naphthylamine liberated after 60 minutes, 37° C.
Outline: as §2

A. seminis = conditions: strain ATCC 15768; β-naphthylamine liberated after 60 minutes, 37° C.
Outline: as §2

Campylobacter sputorum = conditions: strain Ba1-21; β-naphthylamine liberated after 60 minutes, 37° C.
Outline: as §2

Streptococcus mitis = conditions: β-naphthylamine liberated after 60 minutes, 37° C.
Outline: as §2

S. sanguis = conditions: β-naphthylamine liberated after 60 minutes, 37° C.
Outline: as §2

Actinomyces israeli = conditions: β-naphthylamine liberated after 60 minutes, 37° C.
Outline: as §2

Veillonella sp. = conditions: strain SE1M2; β-naphthylamine liberated after 60 minutes, 37° C.
Outline: as §2

V. parvula = conditions: strain ATCC 10790; β-naphthylamine liberated after 60 minutes, 37° C.
Outline: as §2

Fusobacterium nucleatum = conditions: β-naphthylamine liberated after 60 minutes, 37° C.
Outline: as §2

A. viscosus = conditions: β-naphthylamine liberated after 60 minutes, 37° C.
Outline: as §2

"Anaerobic vibrio" = conditions: strain SN2T2; β-naphthylamine liberated after 60 minutes, 37° C.
Outline: as §2

B. intermedius = test: Aminopeptidase activity on β-naphthylamide substrates; conditions: strain ATCC 25611; β-naphthylamine liberated after 60 minutes, 37° C.
Outline: as §1

B. melaninogenicus = test: as above; conditions: strain ATCC 25845; β-naphthylamine liberated after 60 minutes, 37° C.
Outline: as §1

C. sputigena = test: as above; conditions: strain ATCC 33123; β-naphthylamine liberated after 60 minutes, 37° C.
Outline: as §1

B. denticola = test: as above; conditions: strain ATCC 33185; β-naphthylamine liberated after 60 minutes, 37° C.
Outline: as §1

B. corporis = test: as above; conditions: strain ATCC 33547; β-naphthylamine liberated after 60 minutes, 37° C.
Outline: as §1

Measured: Aminopeptidase activity

CC(C)C[C@H](N)C(=O)NCC(=O)O [Leu-Gly, Leucyl-glycine] (H-Leu-Gly-OH)
2 nmol: L. fermentum | Lactobacillus casei; strain ATCC 11578 | [1]; strain 67 | Fusobacterium nucleatum; strain 2
124 nmol: Streptococcus mitis; strain ATCC 15911
10 nmol: B. intermedius
51 nmol: B. levii; strain 18-1-8
47 nmol: B. levii; strain 18-1-5 | Bacteroides gingivalis; strain 11-1-2
9 nmol: C. ochracea
1 nmol: Lactobacillus casei; strain ATCC 11582
48 nmol: Bacteroides gingivalis; strain ATCC 33277
20 nmol: C. sputigena
16 nmol: Bacteroides gingivalis; strain 1021
42 nmol: B. denticola
53 nmol: B. melaninogenicus
6 nmol: Bacteroides gingivalis; strain 9-14K-1 | Bacteroides gingivalis; strain FAYE 19m-1
0 nmol: Capnocytophaga sp. | A. equuli | F. periodonticum | Lactobacillus casei; strain ATCC 7469 | S. salivarius; strain ATCC 9759 | S. salivarius; strain ATCC 25975 | Haemophilus aphrophilus; strain ATCC 13252 | Haemophilus aphrophilus; strain ATCC 19415 | Haemophilus aphrophilus; strain NCTC 5908 | A. suis | Eikenella corrodens | S. mutans | [1]; strain 75 | [1]; strain ATCC 29523 | [1]; strain NCTC 9709 | [1]; strain Y4 | A. seminis | Campylobacter sputorum | Streptococcus mitis; strain ATCC 9815 | Streptococcus mitis; strain ATCC 15909 | Streptococcus mitis; strain ATCC 15912 | S. sanguis; strain ATCC 10556 | S. sanguis; strain ATCC 10557 | Actinomyces israeli; strain ATCC 12103 | Actinomyces israeli; strain DK2-3 | Veillonella sp. | V. parvula | Fusobacterium nucleatum; strain ATCC 25586 | Fusobacterium nucleatum; strain D31A-24 | A. viscosus; strain ATCC 19246 | A. viscosus; strain T14V | "Anaerobic vibrio"
76 nmol: Bacteroides gingivalis; strain 381
67 nmol: B. corporis
